In brackets after ≈: the same amount, converted by molar mass. Activity calls are given as the source filed them. The rule behind the calls is not given here.
Columns and labels:
Type in all cases: functional
Aspergillus clavatus = assay: Antifungal activity against Aspergillus clavatus by broth dilution method
Aspergillus niger = assay: Antifungal activity against Aspergillus niger by broth dilution method
Candida albicans = assay: Antifungal activity against Candida albicans by broth dilution method
Streptococcus pyogenes = assay: Antibacterial activity against Streptococcus pyogenes by broth dilution method
Staphylococcus aureus = assay: Antibacterial activity against Staphylococcus aureus by broth dilution method
Pseudomonas aeruginosa = assay: Antibacterial activity against Pseudomonas aeruginosa by broth dilution method
Escherichia coli = assay: Antibacterial activity against Escherichia coli by broth dilution method

Compound	MIC (Aspergillus clavatus) [µg/mL]	MIC (Aspergillus niger) [µg/mL]	MIC (Candida albicans) [µg/mL]	MIC (Streptococcus pyogenes) [µg/mL]	MIC (Staphylococcus aureus) [µg/mL]	MIC (Pseudomonas aeruginosa) [µg/mL]	MIC (Escherichia coli) [µg/mL]	Activity (Candida albicans)	Activity (Streptococcus pyogenes)	Activity (Staphylococcus aureus)	Activity (Pseudomonas aeruginosa)	Activity (Escherichia coli)
COc1ccc(N2CCN(c3cc4c(cc3F)c(=O)c(C(=O)NN3C(=O)CSC3c3ccc(Cl)cc3)cn4C3CC3)CC2)cc1 (stereo unspecified)	> 1000	500 (≈ 771 µM)	1000 (≈ 1540 µM)	1000 (≈ 1540 µM)	100 (≈ 154 µM)	500 (≈ 771 µM)	500 (≈ 771 µM)					
O=C(N/N=C\c1ccccc1[N+](=O)[O-])c1cn(C2CC2)c2cc(Cl)c(F)cc2c1=O	> 1000	1000 (≈ 2330 µM)	500 (≈ 1170 µM)	200 (≈ 466 µM)	100 (≈ 233 µM)	200 (≈ 466 µM)	500 (≈ 1170 µM)					
COc1ccc(N2CCN(c3cc4c(cc3F)c(=O)c(C(=O)NN3C(=O)CSC3c3cccc([N+](=O)[O-])c3)cn4C3CC3)CC2)cc1 (stereo unspecified)	> 1000	1000 (≈ 1520 µM)	1000 (≈ 1520 µM)	1000 (≈ 1520 µM)	500 (≈ 759 µM)	200 (≈ 304 µM)	500 (≈ 759 µM)					
COc1ccc(N2CCN(c3cc4c(cc3F)c(=O)c(C(=O)NN3C(=O)CSC3c3ccccc3[N+](=O)[O-])cn4C3CC3)CC2)cc1 (stereo unspecified)	1000 (≈ 1520 µM)	1000 (≈ 1520 µM)	1000 (≈ 1520 µM)	500 (≈ 759 µM)	200 (≈ 304 µM)	100 (≈ 152 µM)	500 (≈ 759 µM)					
COc1ccc(N2CCN(c3cc4c(cc3F)c(=O)c(C(=O)N/N=C\c3ccc(O)cc3)cn4C3CC3)CC2)cc1	1000 (≈ 1800 µM)	1000 (≈ 1800 µM)	1000 (≈ 1800 µM)	1000 (≈ 1800 µM)	500 (≈ 900 µM)	200 (≈ 360 µM)	500 (≈ 900 µM)					
COc1ccc(N2CCN(c3cc4c(cc3F)c(=O)c(C(=O)N/N=C\c3ccccc3Cl)cn4C3CC3)CC2)cc1	> 1000	> 1000	500 (≈ 871 µM)	100 (≈ 174 µM)	500 (≈ 871 µM)	100 (≈ 174 µM)	100 (≈ 174 µM)					
COC1=CC(=O)C[C@@H](C)[C@]12Oc1c(Cl)c(OC)cc(OC)c1C2=O [GRISEOFULVIN]	100 (≈ 283 µM)	100 (≈ 283 µM)	500 (≈ 1420 µM)									
CCn1cc(C(=O)O)c(=O)c2cc(F)c(N3CCNCC3)cc21 [NORFLOXACIN]				10 (≈ 31.3 µM)	10 (≈ 31.3 µM)	10 (≈ 31.3 µM)	10 (≈ 31.3 µM)					
O=C(N/N=C\c1ccccc1Cl)c1cn(C2CC2)c2cc(Cl)c(F)cc2c1=O	500 (≈ 1200 µM)	500 (≈ 1200 µM)	1000 (≈ 2390 µM)	100 (≈ 239 µM)	200 (≈ 478 µM)	100 (≈ 239 µM)	50 (≈ 120 µM)					
COc1ccc(N2CCN(c3cc4c(cc3F)c(=O)c(C(=O)N/N=C\c3ccccc3O)cn4C3CC3)CC2)cc1	> 1000	500 (≈ 900 µM)	500 (≈ 900 µM)	500 (≈ 900 µM)	500 (≈ 900 µM)	500 (≈ 900 µM)	500 (≈ 900 µM)					
COc1ccc(N2CCN(c3cc4c(cc3F)c(=O)c(C(=O)N/N=C\c3ccc(O)c(OC)c3)cn4C3CC3)CC2)cc1	1000 (≈ 1710 µM)	1000 (≈ 1710 µM)	1000 (≈ 1710 µM)	500 (≈ 854 µM)	500 (≈ 854 µM)	200 (≈ 342 µM)	150 (≈ 256 µM)					
O=C(O)c1cn(C2CC2)c2cc(N3CCNCC3)c(F)cc2c1=O [CIPROFLOXACIN]				50 (≈ 151 µM)	50 (≈ 151 µM)		25 (≈ 75.4 µM)					
O=C(N/N=C\c1ccccc1)c1cn(C2CC2)c2cc(Cl)c(F)cc2c1=O	1000 (≈ 2610 µM)	1000 (≈ 2610 µM)	500 (≈ 1300 µM)	1000 (≈ 2610 µM)	500 (≈ 1300 µM)	1000 (≈ 2610 µM)	500 (≈ 1300 µM)					
O=C(O)c1cn(C2CC2)c2cc(Cl)c(F)cc2c1=O	1000 (≈ 3550 µM)	1000 (≈ 3550 µM)	500 (≈ 1780 µM)	100 (≈ 355 µM)	100 (≈ 355 µM)	100 (≈ 355 µM)	100 (≈ 355 µM)					
COc1ccc(N2CCN(c3cc4c(cc3F)c(=O)c(C(=O)NN3C(=O)CSC3c3ccccc3)cn4C3CC3)CC2)cc1 (stereo unspecified)	500 (≈ 815 µM)	500 (≈ 815 µM)	1000 (≈ 1630 µM)	1000 (≈ 1630 µM)	500 (≈ 815 µM)	200 (≈ 326 µM)	1000 (≈ 1630 µM)					
COc1ccc(/C=N\NC(=O)c2cn(C3CC3)c3cc(Cl)c(F)cc3c2=O)cc1	> 1000	> 1000	500 (≈ 1210 µM)	1000 (≈ 2420 µM)	500 (≈ 1210 µM)	500 (≈ 1210 µM)	200 (≈ 483 µM)					

Compound	MIC (Aspergillus clavatus) [µg/mL]	MIC (Aspergillus niger) [µg/mL]	MIC (Candida albicans) [µg/mL]	MIC (Streptococcus pyogenes) [µg/mL]	MIC (Staphylococcus aureus) [µg/mL]	MIC (Pseudomonas aeruginosa) [µg/mL]	MIC (Escherichia coli) [µg/mL]	Activity (Candida albicans)	Activity (Streptococcus pyogenes)	Activity (Staphylococcus aureus)	Activity (Pseudomonas aeruginosa)	Activity (Escherichia coli)
CC1(C)S[C@@H]2[C@H](NC(=O)[C@H](N)c3ccccc3)C(=O)N2[C@H]1C(=O)O [AMPICILLIN]				100 (≈ 286 µM)	250 (≈ 715 µM)	100 (≈ 286 µM)	100 (≈ 286 µM)					
GENTAMICIN				0.5	0.25	1	0.05					
COc1ccc(/C=N\NC(=O)c2cn(C3CC3)c3cc(N4CCN(c5ccc(OC)cc5)CC4)c(F)cc3c2=O)cc1	> 1000	> 1000	500 (≈ 878 µM)	100 (≈ 176 µM)	500 (≈ 878 µM)	200 (≈ 351 µM)	100 (≈ 176 µM)					
O=C(N/N=C\c1ccccc1O)c1cn(C2CC2)c2cc(Cl)c(F)cc2c1=O	500 (≈ 1250 µM)	500 (≈ 1250 µM)	500 (≈ 1250 µM)	1000 (≈ 2500 µM)	500 (≈ 1250 µM)	500 (≈ 1250 µM)	500 (≈ 1250 µM)					
O=C(N/N=C\c1ccc(O)cc1)c1cn(C2CC2)c2cc(Cl)c(F)cc2c1=O	500 (≈ 1250 µM)	500 (≈ 1250 µM)	500 (≈ 1250 µM)	500 (≈ 1250 µM)	500 (≈ 1250 µM)	500 (≈ 1250 µM)	500 (≈ 1250 µM)					
COc1ccc(N2CCN(c3cc4c(cc3F)c(=O)c(C(=O)N/N=C\c3ccc(Cl)cc3)cn4C3CC3)CC2)cc1	1000 (≈ 1740 µM)	1000 (≈ 1740 µM)	1000 (≈ 1740 µM)	500 (≈ 871 µM)	1000 (≈ 1740 µM)	1000 (≈ 1740 µM)	1000 (≈ 1740 µM)					
COc1ccc(N2CCN(c3cc4c(cc3F)c(=O)c(C(=O)NN3C(=O)CSC3c3ccc(O)cc3)cn4C3CC3)CC2)cc1 (stereo unspecified)	> 1000	1000 (≈ 1590 µM)	1000 (≈ 1590 µM)	500 (≈ 794 µM)	500 (≈ 794 µM)	500 (≈ 794 µM)	500 (≈ 794 µM)					
O=C(N/N=C\c1ccc(Cl)cc1)c1cn(C2CC2)c2cc(Cl)c(F)cc2c1=O	500 (≈ 1200 µM)	500 (≈ 1200 µM)	1000 (≈ 2390 µM)	1000 (≈ 2390 µM)	1000 (≈ 2390 µM)	1000 (≈ 2390 µM)	1000 (≈ 2390 µM)					
COc1ccc(N2CCN(c3cc4c(cc3F)c(=O)c(C(=O)N/N=C\c3cccc([N+](=O)[O-])c3)cn4C3CC3)CC2)cc1	1000 (≈ 1710 µM)	1000 (≈ 1710 µM)	1000 (≈ 1710 µM)	500 (≈ 855 µM)	1000 (≈ 1710 µM)	500 (≈ 855 µM)	1000 (≈ 1710 µM)					
NNC(=O)c1cn(C2CC2)c2cc(Cl)c(F)cc2c1=O	500 (≈ 1690 µM)	500 (≈ 1690 µM)	200 (≈ 676 µM)	500 (≈ 1690 µM)	500 (≈ 1690 µM)	500 (≈ 1690 µM)	500 (≈ 1690 µM)					
O=C(Cl)c1cn(C2CC2)c2cc(Cl)c(F)cc2c1=O								Active	Active	Active	Active	Active
O=C(N/N=C\c1cccc([N+](=O)[O-])c1)c1cn(C2CC2)c2cc(Cl)c(F)cc2c1=O	> 1000	1000 (≈ 2330 µM)	1000 (≈ 2330 µM)	1000 (≈ 2330 µM)	1000 (≈ 2330 µM)	200 (≈ 466 µM)	200 (≈ 466 µM)					
COc1ccc(N2CCN(c3cc4c(cc3F)c(=O)c(C(=O)N/N=C\c3ccccc3)cn4C3CC3)CC2)cc1	500 (≈ 927 µM)	500 (≈ 927 µM)	500 (≈ 927 µM)	500 (≈ 927 µM)	1000 (≈ 1850 µM)	500 (≈ 927 µM)	500 (≈ 927 µM)					
O=C(N[C@H](CO)[C@H](O)c1ccc([N+](=O)[O-])cc1)C(Cl)Cl [CHLORAMPHENICOL]				50 (≈ 155 µM)	50 (≈ 155 µM)	50 (≈ 155 µM)	50 (≈ 155 µM)					
NYSTATIN	100	100	100									

— ChEMBL document CHEMBL3046517, “Synthesis and antimicrobial study of fluoroquinolone-based 4-thiazolidinones” (2010)
